Earlier results on one molecule are cited in paper PMC4210863 (Bioorganic & medicinal chemistry, 2010).

The target in this data set is T1, O-GlcNAcase (OGA) (Homo sapiens, UniProt O60502).
T1 sequence (O60502 1-916): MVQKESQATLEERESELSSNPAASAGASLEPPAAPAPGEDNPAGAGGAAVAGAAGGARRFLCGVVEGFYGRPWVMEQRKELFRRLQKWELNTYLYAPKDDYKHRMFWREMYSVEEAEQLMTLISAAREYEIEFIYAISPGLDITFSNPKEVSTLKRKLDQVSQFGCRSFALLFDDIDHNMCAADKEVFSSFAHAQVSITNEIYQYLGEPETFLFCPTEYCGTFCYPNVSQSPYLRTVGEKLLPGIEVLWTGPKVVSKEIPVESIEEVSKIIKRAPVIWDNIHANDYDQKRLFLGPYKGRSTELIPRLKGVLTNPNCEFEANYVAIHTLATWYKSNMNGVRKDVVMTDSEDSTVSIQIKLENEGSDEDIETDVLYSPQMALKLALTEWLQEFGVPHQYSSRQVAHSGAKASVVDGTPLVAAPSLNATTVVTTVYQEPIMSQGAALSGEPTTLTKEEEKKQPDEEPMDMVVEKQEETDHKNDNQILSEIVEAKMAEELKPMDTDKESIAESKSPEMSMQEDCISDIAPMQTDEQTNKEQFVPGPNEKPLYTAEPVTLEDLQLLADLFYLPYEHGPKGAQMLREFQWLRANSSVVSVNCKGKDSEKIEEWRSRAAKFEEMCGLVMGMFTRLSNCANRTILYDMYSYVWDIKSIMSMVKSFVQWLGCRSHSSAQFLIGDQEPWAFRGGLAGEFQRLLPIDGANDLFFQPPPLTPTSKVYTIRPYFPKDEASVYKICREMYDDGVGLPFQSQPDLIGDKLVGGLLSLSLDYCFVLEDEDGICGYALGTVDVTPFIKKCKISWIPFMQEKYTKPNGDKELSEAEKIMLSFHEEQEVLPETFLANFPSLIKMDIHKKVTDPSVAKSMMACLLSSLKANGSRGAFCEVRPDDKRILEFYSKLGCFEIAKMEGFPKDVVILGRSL
Briefly: fluorogenic substrate hydrolysis by OGA. The format is biochemical.

Regarding `CC(=O)N[C@H]1[C@H](Oc2ccc3c(c2)Oc2cc(O[C@@H]4O[C@H](CO)[C@@H](O)[C@H](O)[C@H]4NC(C)=O)ccc2C32OC(=O)c3ccccc32)O[C@H](CO)[C@@H](O)[C@@H]1O` [compound 3, FDGlcNAc], the Km was 85 µM.
